Data: EP2530078A1, “THIAZOLE DERIVATIVE” (Takeda Pharmaceutical Company Limited, priority 2010, dated 2011)
Where a name gives a salt, the structure may show the parent alone.

Tests used:
[1] = system: methamphetamine-induced locomotor hyperactivity in mice; test: Inhibition test of methamphetamine-induced locomotor hyperactivity; format: in vivo; conditions: male ICR mice, test compound 30 mg/kg body weight orally, methamphetamine 2 mg/kg body weight subcutaneously 60 min later; relative to vehicle treatment group
Procedure: Inhibition test of methamphetamine-induced locomotor hyperactivity
The compound of the present invention can be evaluated by assessing its capacity to inhibit methamphetamine-induced locomotor hyperactivity in mice. The method of Okuyama et al (Life Science, Vol. 65, p. 2109-2125 (1999)) was modified and used for testing the inhibition of methamphetamine-induced locomotor hyperactivity.
Locomotor activity was measured using a 32-channel locomotor activity measurement device MDC-LT (BrainScience Idea Co., Ltd.), which emits infrared beams from the top of a cage (30 cm x 40 cm x 20 cm). 6- to 8-Week-old male ICR mice were acclimated for at least 45 min in the measurement cages, and then either test compound (30 mg/kg body weight) dissolved in vehicle (0.5% aqueous methylcellulose solution) or the vehicle alone was orally administered to the laboratory animals. This oral administration was followed 60 min later by subcutaneous administration of methamphetamine (2 mg/kg body weight).
The number of times the laboratory animals passed through the infrared beams emitted inside the measurement cages in 150 min after administration of the test compound or vehicle was counted to quantify locomotor activity. The methamphetamine-induced locomotor hyperactivity inhibition rate (activity inhibition rate (%)) was calculated by the following equation. Activityinhibitionrate(%) = {1-(locomotoractivityoftestcompoundtreatmentgroupaftertreatmentwithmethamphetamine÷locomotoractivityofvehicletreatmentgroupaftertreatmentwithmethamphetamine)}x100 [formula]

human GPR52 = target: T1, human GPR52 (Homo sapiens, UniProt Q9Y2T5); test: Increase of intracellular cAMP concentration in human GPR52-expressing CHO cell (AlphaScreen cAMP assay); format: cell-based; conditions: test compound 10 µm, 37°C, 30 min, human GPR52-expressing CHO(dhfr-) cells, 100% = cAMP with 1 µM N-(2-hydroxyethyl)-3-[2-[3-(trifluoromethyl)benzyl]-1-benzofuran-4-yl]benzamide, 0% = DMSO; for activation at 10 µM: 0.5 h, read-out: GPR52 agonist activity (%)
T1 construct: expressed in transfected cells; host or cells: CHO(dhfr-) cells
T1 sequence (Q9Y2T5 whole entry): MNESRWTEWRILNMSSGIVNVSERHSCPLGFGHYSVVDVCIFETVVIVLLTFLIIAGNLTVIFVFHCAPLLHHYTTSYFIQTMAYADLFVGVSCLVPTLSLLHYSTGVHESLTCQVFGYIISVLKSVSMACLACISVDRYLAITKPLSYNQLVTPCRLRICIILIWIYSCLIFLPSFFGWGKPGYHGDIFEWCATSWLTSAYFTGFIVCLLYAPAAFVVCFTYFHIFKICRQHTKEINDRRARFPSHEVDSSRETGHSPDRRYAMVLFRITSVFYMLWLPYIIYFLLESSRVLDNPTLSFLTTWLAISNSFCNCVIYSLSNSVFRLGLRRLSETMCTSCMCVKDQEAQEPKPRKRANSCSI
Procedure: Increase of intracellular cAMP concentration in human GPR52-expressing CHO cell
Using OptiPlate-384 (PerkinElmer Inc.), 1×10^4 human GPR52-expressing CHO(dhfr-) cells were incubated together with a test compound ([…]) in an assay buffer (30 µL, HBSS (containing Ca^2+ and Mg^2+), 0.5% BSA, 100 µM IBMX, 100 µM Ro20-1724, 5 mM HEPES (pH 7.55)) at 37°C for 30 min. Thereafter, according to the protocol of AlphaScreen cAMP Assay Kit (PerkinElmer Inc.), the intracellular cAMP concentration was measured by EnVision (PerkinElmer Inc.). The GPR52 agonist activity was calculated, assuming the intracellular cAMP concentration in the presence of 1 µM N-(2-hydroxyethyl)-3-[2-[3-(trifluoromethyl)benzyl]-1-benzofuran-4-yl]benzamide to be 100% and assuming the intracellular cAMP concentration when DMSO was added instead of the test compound to be 0%.

Row | Molecule | activation at 10 µM (human GPR52) [%] | motor activity suppression rate (%) [1] [%] | GPR52 agonist activity (%) (human GPR52)
1 | Cc1nc(Cc2cccc(C(F)(F)F)c2)sc1NC(=O)c1ccnn1C [Example 3, 1-methyl-N-{4-methyl-2-[3-(trifluoromethyl)benzyl]-1,3-thiazol-5-yl}-1H-pyrazole-5-carboxamide] | – | 32 | 81
2 | Cc1nc(Cc2cc(F)cc(Cl)c2)sc1NC(=O)c1ccnn1C [Example 145, N-[2-(3-chloro-5-fluorobenzyl)-4-methyl-1,3-thiazol-5-yl]-1-methyl-1H-pyrazole-5-carboxamide] | 95 | 47 | –
3 | Cc1nn(C)cc1C(=O)Nc1sc(Cc2cc(F)cc(Cl)c2)nc1C [Example 146, N-[2-(3-chloro-5-fluorobenzyl)-4-methyl-1,3-thiazol-5-yl]-1,3-dimethyl-1H-pyrazole-4-carboxamide] | 84 | 42 | –
4 | CCn1nccc1C(=O)Nc1sc(Cc2cc(F)cc(Cl)c2)nc1C [Example 148, N-[2-(3-chloro-5-fluorobenzyl)-4-methyl-1,3-thiazol-5-yl]-1-ethyl-1H-pyrazole-5-carboxamide] | 76 | 67 | –
5 | CCCn1nccc1C(=O)Nc1sc(Cc2cc(F)cc(Cl)c2)nc1C [Example 153, N-[2-(3-chloro-5-fluorobenzyl)-4-methyl-1,3-thiazol-5-yl]-1-propyl-1H-pyrazole-5-carboxamide] | 72 | 39 | –
6 | COc1cc(C(=O)Nc2sc(Cc3cc(F)cc(Cl)c3)nc2C)n(C)n1 [Example 235, N-[2-(3-chloro-5-fluorobenzyl)-4-methyl-1,3-thiazol-5-yl]-3-methoxy-1-methyl-1H-pyrazole-5-carboxamide] | 79 | – | –
7 | Cc1nc(Cc2cc(F)cc(Cl)c2)sc1NC(=O)c1cc(CN2CCOCC2)nn1C [Example 238, N-[2-(3-chloro-5-fluorobenzyl)-4-methyl-1,3-thiazol-5-yl]-1-methyl-3-(morpholinomethyl)-1H-pyrazole-5-carboxamide monohydrochloride] | 80 | – | –
8 | N^4-[2-(3-chloro-5-fluorobenzyl)-4-methyl-1,3-thiazol-5-yl]piperidine-1,4-dicarboxamide [Example 254] | – | – | 77

The next lines start with results.

Row | activation at 10 µM (human GPR52) [%] | Molecule | motor activity suppression rate (%) [1] [%] | GPR52 agonist activity (%) (human GPR52)
9 | 76 | Cc1nc(Cc2cc(F)cc(Cl)c2)sc1NC(=O)c1cc(CS(C)(=O)=O)nn1C [Example 242, N-[2-(3-chloro-5-fluorobenzyl)-4-methyl-1,3-thiazol-5-yl]-1-methyl-3-[(methylsulfonyl)methyl]-1H-pyrazole-5-carboxamide] | – | –
10 | 77 | Cc1nc(Cc2cc(F)cc(Cl)c2)sc1NC(=O)c1cc(Cn2ccnc2)nn1C [Example 243, N-[2-(3-chloro-5-fluorobenzyl)-4-methyl-1,3-thiazol-5-yl]-3-[(1H-imidazol-1-yl)methyl]-1-methyl-1H-pyrazole-5-carboxamide] | – | –
11 | 70 | Cc1nc(Cc2cc(F)cc(Cl)c2)sc1NC(=O)c1cc(S(C)(=O)=O)nn1C [Example 246, N-[2-(3-chloro-5-fluorobenzyl)-4-methyl-1,3-thiazol-5-yl]-1-methyl-3-(methylsulfonyl)-1H-pyrazole-5-carboxamide] | – | –
12 | 69 | Cc1nc(Cc2cc(F)cc(Cl)c2)sc1NC(=O)c1cc([S+](C)[O-])nn1C (stereo not shown) [Example 247, N-[2-(3-chloro-5-fluorobenzyl)-4-methyl-1,3-thiazol-5-yl]-1-methyl-3-(methylsulfinyl)-1H-pyrazole-5-carboxamide] | – | –
13 | 99 | Cc1nc(Cc2cc(F)cc(C3CC3)c2)sc1NC(=O)c1ccnn1C [Example 249, N-[2-(3-cyclopropyl-5-fluorobenzyl)-4-methyl-1,3-thiazol-5-yl]-1-methyl-1H-pyrazole-5-carboxamide] | – | –
14 | 72 | Cc1nc(Cc2cc(F)cc(Cl)c2)sc1NC(=O)Cn1cnnn1 [Example 252, N-[2-(3-chloro-5-fluorobenzyl)-4-methyl-1,3-thiazol-5-yl]-2-(1H-tetrazol-1-yl)acetamide] | – | –
